Data from article PMC5218480 (PLoS ONE, 2017).

Tested on: MV-4-11 cells
Assay: Gene expression microarray analysis (Affymetrix PrimeView) and GSEA
Format: cell-based, human
Set-up: RFU PODN (11730768_x_at) / Fold change /veh PODN (11730768_x_at) / RFU LINC00158 (11744669_a_at) / Fold change /veh LINC00158 (11744669_a_at) / RFU DUSP10 (11751237_a_at) / Fold change /veh DUSP10 (11751237_a_at) / RFU ID3 (11757404_x_at) / Fold change /veh ID3 (11757404_x_at) / RFU PLEKHG5 (11737974_s_at) / Fold change /veh PLEKHG5 (11737974_s_at) / RFU LRRC4B (11730491_at) / Fold change /veh LRRC4B (11730491_at) / RFU GIMAP4 (11747438_a_at) / Fold change /veh GIMAP4 (11747438_a_at) / RFU KRT8 (11758183_x_at) / Fold change /veh KRT8 (11758183_x_at) / RFU CNN1 (11734310_a_at) / Fold change /veh CNN1 (11734310_a_at) / RFU VPS37D (11726825_at) / Fold change /veh VPS37D (11726825_at) / RFU C10orf10 (11716522_x_at) / Fold change /veh C10orf10 (11716522_x_at) / RFU KIR2DL2 /// KIR2DL4 /// KIR2DL5A /// KIR2DL5B /// KIR2DS1 /// KIR2DS2 /// KIR2DS3 /// KIR2DS4 /// KIR3DL3 /// KIR3DL3 /// KIR3DS1 (11738374_at) / Fold change /veh KIR2DL2 /// KIR2DL4 /// KIR2DL5A /// KIR2DL5B /// KIR2DS1 /// KIR2DS2 /// KIR2DS3 /// KIR2DS4 /// KIR3DL3 /// KIR3DL3 /// KIR3DS1 (11738374_at) / RFU C1QL1 (11718748_at) / Fold change /veh C1QL1 (11718748_at) / RFU TMPRSS4 (11747572_a_at) / Fold change /veh TMPRSS4 (11747572_a_at) / RFU HAMP (11756126_x_at) / Fold change /veh HAMP (11756126_x_at) / RFU RNFT2 (11725882_a_at) / Fold change /veh RNFT2 (11725882_a_at) / RFU NR4A2 (11747474_a_at) / Fold change /veh NR4A2 (11747474_a_at) / RFU ABCC12 (11746883_a_at) / Fold change /veh ABCC12 (11746883_a_at) / RFU TMEM136 (11760407_x_at) / Fold change /veh TMEM136 (11760407_x_at) / RFU CLDN22 /// WWC2 (11732394_at) / Fold change /veh CLDN22 /// WWC2 (11732394_at) / RFU HLA-DPB1 (11760878_x_at) / Fold change /veh HLA-DPB1 (11760878_x_at) / RFU SPINT1 (11716480_a_at) / Fold change /veh SPINT1 (11716480_a_at) / RFU GAP43 (11754022_s_at) / Fold change /veh GAP43 (11754022_s_at) / RFU A4GNT (11735810_at) / Fold change /veh A4GNT (11735810_at) / RFU PRB3 (11715151_x_at) / Fold change /veh PRB3 (11715151_x_at) / RFU TUBB4B (11761932_at) / Fold change /veh TUBB4B (11761932_at) / RFU CAPN14 (11732068_a_at) / Fold change /veh CAPN14 (11732068_a_at) / RFU TMCC2 (11721928_a_at) / Fold change /veh TMCC2 (11721928_a_at) / RFU IRGQ (11745062_a_at) / Fold change /veh IRGQ (11745062_a_at) / RFU FAM174B (11720279_a_at) / Fold change /veh FAM174B (11720279_a_at) / RFU TMPRSS4 (11748680_a_at) / Fold change /veh TMPRSS4 (11748680_a_at) / RFU FAM212B (11763350_a_at) / Fold change /veh FAM212B (11763350_a_at) / RFU PLEKHG5 (11743358_a_at) / Fold change /veh PLEKHG5 (11743358_a_at) / RFU ZSCAN30 (11745921_a_at) / Fold change /veh ZSCAN30 (11745921_a_at) / RFU CMKLR1 (11741424_a_at) / Fold change /veh CMKLR1 (11741424_a_at) / RFU LOC101060620 /// MAPK8IP1 (11723275_at) / Fold change /veh LOC101060620 /// MAPK8IP1 (11723275_at) / RFU SPTSSB (11747773_x_at) / Fold change /veh SPTSSB (11747773_x_at) / RFU PRSS12 (11739890_at) / Fold change /veh PRSS12 (11739890_at) / RFU BIN1 (11741810_x_at) / Fold change /veh BIN1 (11741810_x_at) / RFU WNT11 (11732464_a_at) / Fold change /veh WNT11 (11732464_a_at) / RFU C10orf10 (11716521_a_at) / Fold change /veh C10orf10 (11716521_a_at) / RFU C5orf56 (11738089_at) / Fold change /veh C5orf56 (11738089_at) / RFU CYB561 (11721691_x_at) / Fold change /veh CYB561 (11721691_x_at) / RFU ANKRD19P (11752326_a_at) / Fold change /veh ANKRD19P (11752326_a_at) / RFU OR2T12 /// OR2T33 /// OR2T8 (11738714_s_at) / Fold change /veh OR2T12 /// OR2T33 /// OR2T8 (11738714_s_at) / RFU VCAN (11748164_a_at) / Fold change /veh VCAN (11748164_a_at) / RFU JSRP1 (11732532_at) / Fold change /veh JSRP1 (11732532_at) / RFU KRTAP10-11 (11738290_x_at) / Fold change /veh KRTAP10-11 (11738290_x_at) / RFU MYO3A (11730013_a_at) / Fold change /veh MYO3A (11730013_a_at) / RFU EBF3 (11725865_a_at) / Fold change /veh EBF3 (11725865_a_at) / RFU CAMK2N1 (11719241_x_at) / Fold change /veh CAMK2N1 (11719241_x_at) / RFU C5orf56 (11738088_a_at) / Fold change /veh C5orf56 (11738088_a_at) / RFU OLFML3 (11715873_a_at) / Fold change /veh OLFML3 (11715873_a_at) / RFU LOC100653217 /// NTM (11731650_a_at) / Fold change /veh LOC100653217 /// NTM (11731650_a_at) / RFU MAPK11 (11762145_a_at) / Fold change /veh MAPK11 (11762145_a_at) / RFU FIZ1 (11724087_x_at) / Fold change /veh FIZ1 (11724087_x_at) / RFU OASL (11726364_x_at) / Fold change /veh OASL (11726364_x_at) / RFU SOX15 (11748057_x_at) / Fold change /veh SOX15 (11748057_x_at) / RFU CD79A (11719716_a_at) / Fold change /veh CD79A (11719716_a_at) / RFU HIST1H1D (11736915_at) / Fold change /veh HIST1H1D (11736915_at) / RFU CASKIN2 (11723855_a_at) / Fold change /veh CASKIN2 (11723855_a_at) / RFU LOC730098 (11760151_x_at) / Fold change /veh LOC730098 (11760151_x_at) / RFU OR4N2 (11742367_at) / Fold change /veh OR4N2 (11742367_at) / RFU PRRT2 (11749266_a_at) / Fold change /veh PRRT2 (11749266_a_at) / RFU SNX32 (11753110_a_at) / Fold change /veh SNX32 (11753110_a_at) / RFU CDHR5 (11726645_a_at) / Fold change /veh CDHR5 (11726645_a_at) / RFU RCAN1 (11760418_a_at) / Fold change /veh RCAN1 (11760418_a_at) / RFU FAM167A (11723789_a_at) / Fold change /veh FAM167A (11723789_a_at) / RFU FAM26E (11764081_at) / Fold change /veh FAM26E (11764081_at) / RFU ISYNA1 (11749810_s_at) / Fold change /veh ISYNA1 (11749810_s_at) / RFU ACY1 (11761880_at) / Fold change /veh ACY1 (11761880_at) / RFU 11764098_at / Fold change /veh 11764098_at / RFU SAMD14 (11745864_x_at) / Fold change /veh SAMD14 (11745864_x_at) / RFU NPB (11741838_a_at) / Fold change /veh NPB (11741838_a_at) / RFU TMPRSS6 (11731388_a_at) / Fold change /veh TMPRSS6 (11731388_a_at) / RFU KRTAP10-2 (11738614_at) / Fold change /veh KRTAP10-2 (11738614_at) / RFU ARHGAP8 /// PRR5-ARHGAP8 (11727945_x_at) / Fold change /veh ARHGAP8 /// PRR5-ARHGAP8 (11727945_x_at) / RFU KRTAP5-7 /// NADSYN1 (11734609_at) / Fold change /veh KRTAP5-7 /// NADSYN1 (11734609_at) / RFU RASL12 (11751679_a_at) / Fold change /veh RASL12 (11751679_a_at) / RFU CDKN2B (11736163_a_at) / Fold change /veh CDKN2B (11736163_a_at) / RFU PRF1 (11729649_at) / Fold change /veh PRF1 (11729649_at) / RFU, ZNF638 /// ZNF638-IT1 / Fold change vs veh, ZNF638 /// ZNF638-IT1 / RFU, PANK3 / Fold change vs veh, PANK3 / RFU, SH3YL1 / Fold change vs veh, SH3YL1 / RFU, ZEB2 / Fold change vs veh, ZEB2 / RFU, NRIP1 / Fold change vs veh, NRIP1 / RFU, PTTG1IP / Fold change vs veh, PTTG1IP / RFU, CAPN2 / Fold change vs veh, CAPN2 / RFU, MED14 / Fold change vs veh, MED14 / RFU, SNORA58 / Fold change vs veh, SNORA58 / RFU, C1orf63 / Fold change vs veh, C1orf63 / RFU, LRRFIP1 / Fold change vs veh, LRRFIP1 / RFU, NDUFAF7 / Fold change vs veh, NDUFAF7 / RFU, SLC12A2 / Fold change vs veh, SLC12A2 / RFU, IBTK / Fold change vs veh, IBTK / RFU, ESF1 / Fold change vs veh, ESF1 / Fold change vs veh, TMEM50B / RFU, TAOK1 / Fold change vs veh, TAOK1 / RFU, ACBD3 / Fold change vs veh, ACBD3 / RFU, TMA16 / Fold change vs veh, TMA16 / RFU, RWDD3 / Fold change vs veh, RWDD3 / RFU, BCAT1 / Fold change vs veh, BCAT1 / RFU, EDEM3 / Fold change vs veh, EDEM3 / RFU, TMEM33 / Fold change vs veh, TMEM33 / RFU, WDR75 / Fold change vs veh, WDR75 / RFU, AHCTF1 / Fold change vs veh, AHCTF1 / RFU, TFRC / Fold change vs veh, TFRC / RFU, ZDHHC17 / Fold change vs veh, ZDHHC17 / RFU, NOM1 / Fold change vs veh, NOM1 / RFU, ARL8B / Fold change vs veh, ARL8B / RFU, ZBTB11 / Fold change vs veh, ZBTB11 / RFU, TAMM41 / Fold change vs veh, TAMM41 / RFU, KIAA1704 /// LOC100996395 / Fold change vs veh, KIAA1704 /// LOC100996395 / RFU, ING1 / Fold change vs veh, ING1 / RFU, TRMT61B / Fold change vs veh, TRMT61B / RFU, FUBP3 / Fold change vs veh, FUBP3 / RFU, TP53 / Fold change vs veh, TP53 / RFU, TNKS2 / Fold change vs veh, TNKS2 / RFU, ZFP14 / Fold change vs veh, ZFP14 / RFU, ACTR2 / Fold change vs veh, ACTR2 / RFU, PPP3R1 / Fold change vs veh, PPP3R1 / RFU, PIK3R1 / Fold change vs veh, PIK3R1 / RFU, HNRNPA1 / Fold change vs veh, HNRNPA1 / RFU, RNF170 / Fold change vs veh, RNF170 / RFU, ZNF28 / Fold change vs veh, ZNF28 / RFU, RNGTT / Fold change vs veh, RNGTT / RFU, OGT / Fold change vs veh, OGT / RFU, BRD1 / Fold change vs veh, BRD1 / RFU, MARS / Fold change vs veh, MARS / RFU, ZNF655 / Fold change vs veh, ZNF655 / RFU, FAHD1 / Fold change vs veh, FAHD1 / RFU, BDP1 / Fold change vs veh, BDP1 / RFU, LRRCC1 / Fold change vs veh, LRRCC1 / RFU, ARID1A / Fold change vs veh, ARID1A / RFU, ZNF146 / Fold change vs veh, ZNF146 / RFU, ZNF330 / Fold change vs veh, ZNF330 / RFU, GPN3 / Fold change vs veh, GPN3 / RFU, C9orf123 / Fold change vs veh, C9orf123 / RFU, N4BP2L2 / Fold change vs veh, N4BP2L2 / RFU, ARFIP1 / Fold change vs veh, ARFIP1 / RFU, FAM179B / Fold change vs veh, FAM179B / RFU, BCL10 / Fold change vs veh, BCL10 / RFU, UHRF1BP1L / Fold change vs veh, UHRF1BP1L / RFU, BET1 / Fold change vs veh, BET1 / RFU, CNOT2 / Fold change vs veh, CNOT2 / RFU, ZNF268 / Fold change vs veh, ZNF268 / Fold change vs veh, ZNF507 / RFU, DGCR2 / Fold change vs veh, DGCR2 / RFU, WDSUB1 / Fold change vs veh, WDSUB1 / Fold change vs veh, HSP90B1 /// MIR3652 / RFU, ADSS / Fold change vs veh, ADSS / RFU, GK / Fold change vs veh, GK / RFU, ZNF148 / Fold change vs veh, ZNF148 / RFU, TAF9 / Fold change vs veh, TAF9 / RFU, SLC1A5 / Fold change vs veh, SLC1A5 / RFU, SLMO2 / Fold change vs veh, SLMO2 / RFU, ABCC4 / Fold change vs veh, ABCC4 / RFU, LOC101060439 /// RAP1B / Fold change vs veh, LOC101060439 /// RAP1B / RFU, RFX7 / Fold change vs veh, RFX7 / RFU, GTPBP10 / Fold change vs veh, GTPBP10 / RFU, CNEP1R1 / Fold change vs veh, CNEP1R1 / RFU, BIVM-ERCC5 /// ERCC5 / Fold change vs veh, BIVM-ERCC5 /// ERCC5 / RFU, ILF3 / Fold change vs veh, ILF3 / RFU 11762660_at / Fold change /veh 11762660_at / RFU VCAN (11757783_s_at) / Fold change /veh VCAN (11757783_s_at) / RFU DDX43 (11728927_at) / Fold change /veh DDX43 (11728927_at) / RFU KRT8 (11758188_x_at) / Fold change /veh KRT8 (11758188_x_at) / RFU NKD1 (11759106_at) / Fold change /veh NKD1 (11759106_at) / RFU SRD5A1 (11742802_a_at) / Fold change /veh SRD5A1 (11742802_a_at) / RFU TPSAB1 /// TPSB2 (11721975_s_at) / Fold change /veh TPSAB1 /// TPSB2 (11721975_s_at) / RFU GSTM3 (11746129_a_at) / Fold change /veh GSTM3 (11746129_a_at) / RFU IL23R (11737362_x_at) / Fold change /veh IL23R (11737362_x_at) / RFU TMEM51 (11727254_a_at) / Fold change /veh TMEM51 (11727254_a_at) / RFU PIWIL2 (11732686_x_at) / Fold change /veh PIWIL2 (11732686_x_at) / RFU ORM1 (11744905_x_at) / Fold change /veh ORM1 (11744905_x_at) / RFU CCDC152 (11743942_at) / Fold change /veh CCDC152 (11743942_at) / RFU ECM1 (11717891_a_at) / Fold change /veh ECM1 (11717891_a_at) / RFU IL23R (11748794_a_at) / Fold change /veh IL23R (11748794_a_at) / RFU TNFAIP8L3 (11732012_x_at) / Fold change /veh TNFAIP8L3 (11732012_x_at) / RFU MBOAT4 (11741988_at) / Fold change /veh MBOAT4 (11741988_at) / RFU 11764193_at / Fold change /veh 11764193_at / RFU TMEM53 (11763286_at) / Fold change /veh TMEM53 (11763286_at) / RFU MAGEB2 (11727129_at) / Fold change /veh MAGEB2 (11727129_at) / RFU TMEM200A (11744735_a_at) / Fold change /veh TMEM200A (11744735_a_at) / RFU CCDC152 (11751479_a_at) / Fold change /veh CCDC152 (11751479_a_at) / RFU FAM211A (11726209_a_at) / Fold change /veh FAM211A (11726209_a_at) / RFU RGS16 (11746705_a_at) / Fold change /veh RGS16 (11746705_a_at) / RFU VCAN (11755009_s_at) / Fold change /veh VCAN (11755009_s_at) / RFU RHOB (11743442_s_at) / Fold change /veh RHOB (11743442_s_at) / RFU RGS16 (11720943_a_at) / Fold change /veh RGS16 (11720943_a_at) / RFU RGS16 (11720944_at) / Fold change /veh RGS16 (11720944_at) / RFU, VPS4B / Fold change vs veh, VPS4B / RFU, CREB1 / Fold change vs veh, CREB1 / RFU, DNAJC13 / Fold change vs veh, DNAJC13 / RFU, GNAQ / Fold change vs veh, GNAQ / RFU, CDK5R1 / Fold change vs veh, CDK5R1 / RFU, ZRANB3 / Fold change vs veh, ZRANB3 / RFU, CUL4A / Fold change vs veh, CUL4A / RFU, CCNY / Fold change vs veh, CCNY / RFU, UFL1 / Fold change vs veh, UFL1 / RFU, COG3 / Fold change vs veh, COG3 / RFU, DIAPH2 / Fold change vs veh, DIAPH2 / RFU, SKA2 / Fold change vs veh, SKA2 / RFU, AFF3 / Fold change vs veh, AFF3 / RFU, LMF1 / Fold change vs veh, LMF1 / RFU, IPO11 / Fold change vs veh, IPO11 / RFU, DFFB / Fold change vs veh, DFFB / RFU, FOXP1 / Fold change vs veh, FOXP1 / RFU, CARD8 / Fold change vs veh, CARD8 / RFU, STRN3 / Fold change vs veh, STRN3 / RFU, ADK / Fold change vs veh, ADK / RFU, RASSF2 / Fold change vs veh, RASSF2 / RFU, WIPF1 / Fold change vs veh, WIPF1 / RFU, LARP1B / Fold change vs veh, LARP1B / RFU, RASA1 / Fold change vs veh, RASA1 / RFU, RB1 / Fold change vs veh, RB1 / RFU, PPFIA1 / Fold change vs veh, PPFIA1 / RFU, MAT2A / Fold change vs veh, MAT2A / RFU, CCT5 / Fold change vs veh, CCT5 / RFU, WDR92 / Fold change vs veh, WDR92 / RFU, CUX1 / Fold change vs veh, CUX1 / RFU, TTC7A / Fold change vs veh, TTC7A / RFU, TMEM135 / Fold change vs veh, TMEM135 / RFU, DEPTOR / Fold change vs veh, DEPTOR / RFU, CPM / Fold change vs veh, CPM / RFU, DNAJB6 / Fold change vs veh, DNAJB6 / RFU, CACNA2D3 / Fold change vs veh, CACNA2D3 / RFU, DTX4 / Fold change vs veh, DTX4 / RFU, TFCP2 / Fold change vs veh, TFCP2 / RFU, GMCL1 /// GMCL1P1 / Fold change vs veh, GMCL1 /// GMCL1P1 / RFU, AEBP2 / Fold change vs veh, AEBP2 / RFU, SNHG1 /// SNORD22 /// SNORD25 /// SNORD26 /// SNORD27 /// SNORD28 /// SNORD29 /// SNORD31 / Fold change vs veh, SNHG1 /// SNORD22 /// SNORD25 /// SNORD26 /// SNORD27 /// SNORD28 /// SNORD29 /// SNORD31 / Fold change (Aza/veh), C12orf56 (ProbeSet 11735607_a_at) / Fold change (ACY-1035/veh), C12orf56 (ProbeSet 11735607_a_at) / Fold change (Aza/veh), FGFR1OP (ProbeSet 11751329_s_at) / Fold change (ACY-1035/veh), FGFR1OP (ProbeSet 11751329_s_at) / Fold change (Aza/veh), VPS36 (ProbeSet 11739960_a_at) / Fold change (ACY-1035/veh), VPS36 (ProbeSet 11739960_a_at) / RFU SYPL1 (11715823_x_at) / Fold change /veh SYPL1 (11715823_x_at) / RFU IGFBP7 (11715501_s_at) / Fold change /veh IGFBP7 (11715501_s_at) / RFU REEP3 (11722064_at) / Fold change /veh REEP3 (11722064_at) / RFU IGLL1 (11728026_x_at) / Fold change /veh IGLL1 (11728026_x_at): dose or concentration left out as unconfirmed
Details: MV-4-11 cells, 48 hours

## Nc1ccc(-c2cccs2)cc1NC(=O)c1ccc2c(c1)cc(C1CC1)n2CCN1CCOCC1 [ACY-1035]
  RFU KRTAP10-2 (11738614_at): 11.58 RFU
